Experimental data from patent US10456376B2, “Use of carbamate compound in order to preventatively treat headaches” (SK BIOPHARMACEUTICALS CO., LTD., priority 2016, dated 2019).

Test system: cortical spreading depression (CSD) in rats
Assay: KCl-induced cortical spreading depression (CSD) animal model of migraine; cerebral blood flow and DC potential measurement
Type: in vivo, Wistar rats
Settings: for number of DC-potential events: KCl-induced CSD (FIG. 3)
Description: All animal experiments were conducted in accordance with the National Institutes of Health (NIH) guidelines for the protection and use of laboratory animals and were approved by the State National Animal Experiment Board of Finland. A total of 48 adult male Wistar rats weighing 250 to 350 g were purchased from Charles River (Germany) and used in this experiment. The animals were raised at ambient temperature (22±1° C.) under an environment in which food and water could be consumed arbitrarily and lighting was controlled (illuminated from 7 am to 8 pm). The animals were divided into the following four groups: • Twelve rats as a negative control group which were intraperitoneally administered 30% PEG400 (5 ml/kg) only, the vehicle of administration, once a day for three weeks • Twelve rats which were intraperitoneally administered the test compound at a dose of 10 mg/kg once a day for three weeks • Twelve rats which were intraperitoneally administered the test compound at a dose of 30 mg/kg once a day for three weeks • Twelve rats as a positive control which were intraperitoneally administered Topiramate at a dose of 80 mg/kg once a day for three weeks
On the last day of the three weeks of administration of the compound and the vehicle (30% PEG 400), the rats were anesthetized with 5% isoflurane (70% N2O and 30% O2 included, dose rate of 300 ml/min) and then were fixed to a stereotactic frame to perform the following surgery. During surgery, the concentration of anesthetic was reduced to 1 to 1.5%, and the rectal temperature was maintained at 37.0±1.0° C. using the homeothermic blanket system.
The skin of the rat head was incised and tilted to both sides, and the right hemisphere of the open skull was drilled using a drill to make three holes, the positions of which are as follows and are indicated by “mm” distance from the bregma; (1) in the occipital cortex, 4.5 at the rear and 2.0 at the lateral; (2) in the parietal cortex, 0.5 at the rear and 2.0 at the lateral; (3) in the frontal cortex, 2 at the front and 2 at the lateral. A laser-Doppler flow probe (Oxyflow, Oxford Optronics, UK) for monitoring the cerebral blood flow (CBF) and an invasive Ag/AgCl electrode for measuring the direct current (DC) potential change were placed on the uninjured dura of the holes drilled in the parietal and frontal cortex and within the cortex, respectively.
The laser-Doppler flow probes were placed in areas with no large pial and dural blood vessels to minimize the interference of the large vessels to the signal. For the measurement of the DC potential difference, a reference electrode was fixed to the neck. The dura on the occipital cortex was carefully removed and care was taken to minimize bleeding. After surgery, the cortical area was restored by washing with saline for 15 minutes. Sphere-shaped (2 mm diameter) cotton wool was wetted with 1 M KCl solution and placed on the pia, and 5 μl of KCl solution was added thereto every 15 minutes to prevent drying. The occurrence of KCl-induced cortical spreading depression (CSD) was measured for 2 hours.
Cerebral blood flow (CBF) and DC potential were continuously monitored starting 5 minutes before KCl treatment. The last drug administration took place 30 minutes before the KCl solution treatment. The parameters analyzed were (1) the number of events of DC potential, the duration of the event, the magnitude of amplitude, and (2) the number of events of cerebral blood flow change and the size of the magnitude of change. […] Statistical analysis was performed using unpaired t-test on StatsDirect statistical software.

SMILES	number of events of increased cerebral blood flow (CBF) (80 mg/kg i.p. once a day for three weeks, positive control, KCl-induced CSD (FIG. 1))	number of DC-potential events (80 mg/kg i.p. once a day for three weeks, positive control)	number of DC-potential events (30 mg/kg i.p. once a day for three weeks, compared to vehicle treated group)	number of events of increased cerebral blood flow (CBF) (30 mg/kg i.p. once a day for three weeks, compared to vehicle treated group, KCl-induced CSD measured for 2 hours (FIG. 1))	degree of cerebral blood flow increase (i.p. once a day for three weeks, compared to vehicle, KCl-induced CSD (FIG. 2))	magnitude of amplitude of the DC-potential event (i.p. once a day for three weeks, compared to vehicle, KCl-induced CSD (FIG. 4))	duration of the DC-potential event (i.p. once a day for three weeks, compared to vehicle, KCl-induced CSD (FIG. 5))
CC1(C)O[C@@H]2[C@@H](CO[C@@]3(COS(N)(=O)=O)OC(C)(C)O[C@@H]23)O1 [Topiramate, reference compound]	reduction effect	effect shown	–	–	–	–	–
NC(=O)O[C@@H](Cn1ncnn1)c1ccccc1Cl [test compound]	–	–	significantly reduced	significantly reduced	no significant effect	no significant effect	no significant effect
